{"source": "patent US9556153B1", "about": "“JAK1 inhibitors” (Eli Lilly and Company, priority 2015, dated 2017)", "key": {"[1]": {"biological_target": "JAK2 (Homo sapiens, UniProt O60674)", "sequence (O60674 whole entry)": "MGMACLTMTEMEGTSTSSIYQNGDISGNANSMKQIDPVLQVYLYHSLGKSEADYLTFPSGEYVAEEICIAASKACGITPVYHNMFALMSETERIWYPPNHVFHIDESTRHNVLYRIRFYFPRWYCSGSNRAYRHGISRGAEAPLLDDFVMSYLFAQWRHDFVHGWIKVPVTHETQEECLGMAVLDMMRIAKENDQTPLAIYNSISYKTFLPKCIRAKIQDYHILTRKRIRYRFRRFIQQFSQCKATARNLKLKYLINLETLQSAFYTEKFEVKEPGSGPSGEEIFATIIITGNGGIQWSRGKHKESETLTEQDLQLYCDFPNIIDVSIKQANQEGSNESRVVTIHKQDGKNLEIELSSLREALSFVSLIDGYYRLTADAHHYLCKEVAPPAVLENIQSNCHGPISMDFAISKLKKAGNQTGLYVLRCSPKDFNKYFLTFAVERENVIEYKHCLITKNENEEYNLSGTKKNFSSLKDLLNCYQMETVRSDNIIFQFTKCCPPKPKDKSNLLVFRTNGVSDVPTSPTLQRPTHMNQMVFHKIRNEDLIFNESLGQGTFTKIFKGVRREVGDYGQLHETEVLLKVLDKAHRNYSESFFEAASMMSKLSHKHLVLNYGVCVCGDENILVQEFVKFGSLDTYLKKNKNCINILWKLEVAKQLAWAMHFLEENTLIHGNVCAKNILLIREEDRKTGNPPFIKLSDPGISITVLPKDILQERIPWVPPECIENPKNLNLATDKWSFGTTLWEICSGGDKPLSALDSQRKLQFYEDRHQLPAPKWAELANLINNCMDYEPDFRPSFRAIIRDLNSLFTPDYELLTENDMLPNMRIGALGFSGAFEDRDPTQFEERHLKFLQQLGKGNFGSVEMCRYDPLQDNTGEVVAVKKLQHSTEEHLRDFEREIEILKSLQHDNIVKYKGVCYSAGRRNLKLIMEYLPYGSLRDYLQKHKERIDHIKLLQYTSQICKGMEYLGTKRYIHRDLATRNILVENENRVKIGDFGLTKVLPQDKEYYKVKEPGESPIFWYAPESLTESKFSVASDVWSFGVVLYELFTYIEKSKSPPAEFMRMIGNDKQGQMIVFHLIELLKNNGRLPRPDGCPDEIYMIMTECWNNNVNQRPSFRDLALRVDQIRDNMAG", "assay": "JAK LanthaScreen Kinase Assay (TR-FRET), JAK2 in vitro enzyme assay", "format": "biochemical", "parameters": "purchased Invitrogen", "conditions": "ATP 5 μM; n=6", "description": "(§1) JAK1, JAK2 and JAK3 In Vitro Enzyme Assays\n(§2) The JAK LanthaScreen™ Kinase Assay (Invitrogen) is used to determine the ability of test compounds to inhibit JAK1, JAK2 and JAK3 kinase activity. These are TR-FRET assay formats that use long-lifetime terbium labeled antibody as the donor species and GFP-STAT1 as the acceptor species. Use the TR-FRET ratio to monitor JAK kinase activity where an increase in phosphorylation of the GFP-STAT1 results in an increase in the TR-FRET ratio. Perform the kinase reaction using a 12.5 μl reaction volume in shallow black 384-well Proxiplate. Add reagents to obtain final reaction conditions of […] HEPES pH, 1.76 mM Triton X-100, ATP (20.0 μM for JAK1 and JAK3 or 5 μM for JAK2) enzyme assays, 10.0 mM MgCl2, 1 mM EGTA and 0.01% Brij-35, 0.05 mM GFP-STAT1, 14 nM JAK1 enzyme for JAK1, 1.0 nM for JAK2 or 2.5 nM for JAK3 enzyme assays, and 4% DMSO and serial dilutions of test compound (diluted 1:3 from 20,000 to 1 nM). Following ATP/GFP-STAT1 addition, centrifuge the assay plates for 1 minute at 1000 revolutions per minute (RPM). Allow the plates to incubate at RT for 60 minutes and then add 12.5 μl of a stopping buffer containing 20 mM EDTA, 2 nM Terbium-anti-phosphorylated Signal Transducers and Activators of Transcription [phosphorylation Tyrosine 701 amino acid] […]"}, "[2]": {"biological_target": "T1, JAK3 (Homo sapiens, UniProt P52333)", "T1 construct": "purchased Invitrogen", "T1 sequence (P52333 1-1124)": "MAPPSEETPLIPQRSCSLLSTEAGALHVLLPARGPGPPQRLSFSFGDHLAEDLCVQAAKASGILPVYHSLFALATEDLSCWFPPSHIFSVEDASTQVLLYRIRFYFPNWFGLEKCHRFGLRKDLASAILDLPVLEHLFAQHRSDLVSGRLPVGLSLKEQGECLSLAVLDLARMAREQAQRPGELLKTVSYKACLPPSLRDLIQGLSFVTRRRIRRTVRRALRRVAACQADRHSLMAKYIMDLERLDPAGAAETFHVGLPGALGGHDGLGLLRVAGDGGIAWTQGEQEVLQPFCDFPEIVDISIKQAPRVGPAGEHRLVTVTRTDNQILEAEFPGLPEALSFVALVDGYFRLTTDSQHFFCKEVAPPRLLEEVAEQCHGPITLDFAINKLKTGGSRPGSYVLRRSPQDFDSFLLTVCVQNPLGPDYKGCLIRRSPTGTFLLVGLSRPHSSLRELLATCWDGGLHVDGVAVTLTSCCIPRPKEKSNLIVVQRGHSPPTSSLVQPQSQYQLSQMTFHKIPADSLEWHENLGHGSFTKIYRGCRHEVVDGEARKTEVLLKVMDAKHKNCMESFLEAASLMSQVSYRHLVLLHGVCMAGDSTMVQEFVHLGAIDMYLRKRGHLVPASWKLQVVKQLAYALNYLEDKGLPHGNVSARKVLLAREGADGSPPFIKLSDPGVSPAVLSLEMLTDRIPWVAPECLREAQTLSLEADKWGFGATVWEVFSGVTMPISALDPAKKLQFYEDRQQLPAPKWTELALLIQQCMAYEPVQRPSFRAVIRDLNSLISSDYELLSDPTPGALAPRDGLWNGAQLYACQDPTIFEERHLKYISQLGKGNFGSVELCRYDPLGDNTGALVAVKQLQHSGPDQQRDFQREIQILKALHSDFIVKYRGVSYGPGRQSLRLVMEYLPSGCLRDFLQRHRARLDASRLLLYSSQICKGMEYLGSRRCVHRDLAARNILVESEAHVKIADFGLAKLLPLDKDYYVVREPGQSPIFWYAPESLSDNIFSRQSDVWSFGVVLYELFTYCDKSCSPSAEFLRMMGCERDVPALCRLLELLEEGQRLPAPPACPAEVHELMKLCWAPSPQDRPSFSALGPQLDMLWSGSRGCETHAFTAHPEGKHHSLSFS", "assay": "JAK LanthaScreen Kinase Assay (TR-FRET), JAK3 in vitro enzyme assay", "format": "biochemical", "conditions": "ATP 20.0 μM; n=6", "description": "as §1, §2"}}, "data": [{"compound": "Cc1cc(Nc2cc(O[C@H]3CC[C@@H](NC[C@@H](O)C(F)(F)F)CC3)cc3c2ncn3C)nn1C", "note": "[Example 1, (2R)-3-{[cis-4-({4-[(1,5-Dimethyl-1H-pyrazol-3-yl)amino]-1-methyl-1H-benzimidazol-6-yl}oxy)cyclohexyl]amino}-1,1,1-trifluoropropan-2-ol]", "values": [{"measurement": "IC50", "setting": "[1]", "value": "557 ± 337", "unit": "nM"}, {"measurement": "IC50", "setting": "[2]", "value": "1910 ± 786", "unit": "nM"}]}]}
